In patent US20250019382A1, “NOVEL INHIBITORS OF CYCLIN-DEPENDENT KINASES” (Origenis Gmbh, priority 2021, published 2025):

target: T1, CDK9/CyclinT1 (Homo sapiens, UniProt P50750); experiment: CDK9/T1 ADPGlo kinase assay; assay type: biochemical; conditions: CDK9/CyclinT1 6 nM, ATP 10 microM, PDKtide 40 microM, 120 min RT
T1 construct: purchased ProQinase/Reaction Biology, USA #0371-0345-1
Experimental: The testing compound was evaluated in 12 concentrations in a 1:3 dilution series, starting from 5microM as the highest concentration.
In a white 384 microplate (Greiner bio-one, Austria #784904,) with 2 microL of 3-fold concentrated CDK9/CyclinT1 (ProQinase/Reaction Biology, USA #0371-0345-1, LOT.: 012), final concentration (f.c.) 6 nM, in 1×kinase buffer, 2 microL of compound (3× fold concentrated in f.c. 1.66% DMSO/H2O) was added and incubated at Room Temperature (RT) for 10 min. Then 2 microL of Substrate/ATP-Mix (3×PDKtide f.c. 40 microM, SignalChem Biotech, Canada via Biozol, Eching, Germany #P10-58, LOT.: L2230-7 and 3×UltraPure ATP f.c. 10 microM (ADP Glo Kinase assay, Promega GmbH, Germany #V9102)) were added, mixed and incubated for 120 min at RT.
After incubation time, 5 microL of ADP Glo reagent (ready to use, ADP Glo Kinase assay, Promega GmbH, Germany #V9102) were added, mixed and incubated for 40 min at RT.
In the last step, 10 microL of ADP Glo Detection reagent (ready to use, ADP Glo Kinase assay, Promega GmbH, Germany #V9102) were added, mixed and incubated for 30 min at RT.
GloMax Discover GM3000 Reader (Promega GmbH, Germany 9700000249) was used for the readout.
The inhibitor concentration was plotted against the luminescence to determine the IC50 using XLFit 5.5 (IDBS, Guildford) to fit to a sigmoidal dose response curve with a variable slope.

T1 sequence (P50750 whole entry): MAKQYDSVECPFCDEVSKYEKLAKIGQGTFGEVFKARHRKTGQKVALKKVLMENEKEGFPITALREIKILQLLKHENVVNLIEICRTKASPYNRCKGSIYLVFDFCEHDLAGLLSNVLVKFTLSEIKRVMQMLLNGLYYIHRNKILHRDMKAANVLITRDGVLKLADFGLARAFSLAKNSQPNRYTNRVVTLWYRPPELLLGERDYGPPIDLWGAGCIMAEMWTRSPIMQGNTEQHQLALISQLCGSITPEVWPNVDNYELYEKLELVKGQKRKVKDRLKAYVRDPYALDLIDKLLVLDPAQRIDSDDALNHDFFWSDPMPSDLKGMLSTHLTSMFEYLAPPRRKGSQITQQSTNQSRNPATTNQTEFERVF
T1 sequence (O60563 whole entry partner): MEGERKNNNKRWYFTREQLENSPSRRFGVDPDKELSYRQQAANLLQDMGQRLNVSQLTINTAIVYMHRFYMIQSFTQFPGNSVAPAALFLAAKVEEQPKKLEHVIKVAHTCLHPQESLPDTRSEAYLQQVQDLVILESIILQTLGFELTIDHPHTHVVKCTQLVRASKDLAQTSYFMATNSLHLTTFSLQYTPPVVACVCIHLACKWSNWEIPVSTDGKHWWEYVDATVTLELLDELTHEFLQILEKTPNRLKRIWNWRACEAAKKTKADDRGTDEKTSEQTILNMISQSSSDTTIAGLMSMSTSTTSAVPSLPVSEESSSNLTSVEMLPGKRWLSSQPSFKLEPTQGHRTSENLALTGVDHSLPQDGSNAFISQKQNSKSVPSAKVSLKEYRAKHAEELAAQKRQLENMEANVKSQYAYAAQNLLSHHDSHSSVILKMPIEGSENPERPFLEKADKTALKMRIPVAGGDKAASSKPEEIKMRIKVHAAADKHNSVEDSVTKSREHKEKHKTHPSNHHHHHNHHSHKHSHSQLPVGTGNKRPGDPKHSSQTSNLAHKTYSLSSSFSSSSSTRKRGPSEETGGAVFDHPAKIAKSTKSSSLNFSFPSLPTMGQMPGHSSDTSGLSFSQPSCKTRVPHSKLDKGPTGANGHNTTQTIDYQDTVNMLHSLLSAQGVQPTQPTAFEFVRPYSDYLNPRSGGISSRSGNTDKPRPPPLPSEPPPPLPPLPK

| IC50 | SMILES |
| --- | --- |
| < 200 nM | C=CCCN1CCC(n2cc(Nc3nc(-c4c(F)cccc4F)nc4ccnn34)cn2)CC1 [Example #87, N-(1-(1-(but-3-en-1-yl)piperidin-4-yl)-1H-pyrazol-4-yl)-2-(2,6-difluorophenyl)pyrazolo[1,5-a][1,3,5]triazin-4-amine] |
| < 200 nM | N#Cc1cnn2c(Nc3cnn(C4CCN(C5CCOCC5)CC4)c3)nc(-c3c(F)cccc3F)nc12 [Example #88, 2-(2,6-difluorophenyl)-4-((1-(1-(tetrahydro-2H-pyran-4-yl)piperidin-4-yl)-1H-pyrazol-4-yl)amino)pyrazolo[1,5-a][1,3,5]triazine-8-carbonitrile] |
| < 1000 nM | COc1ccc(Nc2nc(-c3c(F)cccc3F)nc3ccnn23)cc1OC [Example #65, 2-(2,6-difluorophenyl)-N-(3,4-dimethoxyphenyl)pyrazolo[1,5-a][1,3,5]triazin-4-amine] |
| < 1000 nM | CCNC(=O)c1ccc(Nc2nc(-c3c(F)cccc3F)nc3ccnn23)cc1 [Example #28, 4-((2-(2,6-difluorophenyl)pyrazolo[1,5-a][1,3,5]triazin-4-yl)amino)-N-ethylbenzamide] |
| < 20 nM | Cn1cc(Nc2nc(-c3c(F)cccc3F)nc3c(Cl)cnn23)cn1 [Example #104, 8-chloro-2-(2,6-difluorophenyl)-N-(1-methyl-1H-pyrazol-4-yl)pyrazolo[1,5-a][1,3,5]triazin-4-amine] |
| < 200 nM | Fc1cccc(F)c1-c1nc(Nc2cnn(C3CCN(CC4CC4)CC3)c2)n2nccc2n1 [Example #80, N-(1-(1-(cyclopropylmethyl)piperidin-4-yl)-1H-pyrazol-4-yl)-2-(2,6-difluorophenyl)pyrazolo[1,5-a][1,3,5]triazin-4-amine] |
| < 1000 nM | CC(=O)N1CCN(c2ccc(Nc3nc(-c4c(F)cccc4F)nc4ccnn34)cc2)CC1 [Example #39, 1-(4-(4-((2-(2,6-difluorophenyl)pyrazolo[1,5-a][1,3,5]triazin-4-yl)amino)phenyl)piperazin-1-yl)ethan-1-one] |
| < 1000 nM | Fc1cccc(F)c1-c1nc(Nc2cnn(C3CCN(C4COC4)CC3)c2)n2nccc2n1 [Example #84, 2-(2,6-difluorophenyl)-N-(1-(1-(oxetan-3-yl)piperidin-4-yl)-1H-pyrazol-4-yl)pyrazolo[1,5-a][1,3,5]triazin-4-amine] |
| < 1000 nM | CCOc1cc(Nc2nc(-c3c(F)cccc3Cl)nc3ccnn23)ccc1C1=CCN(C2CC2)CC1 [Example #34, 2-(2-chloro-6-fluorophenyl)-N-(4-(1-cyclopropyl-1,2,3,6-tetrahydropyridin-4-yl)-3-ethoxyphenyl)pyrazolo[1,5-a][1,3,5]triazin-4-amine] |
| < 200 nM | N[C@@H]1CC[C@H](Nc2nc(-c3c(F)cccc3F)nc3c(Cl)cnn23)C1 [Example #125, (1S,3R)-N1-(8-chloro-2-(2,6-difluorophenyl)pyrazolo[1,5-a][1,3,5]triazin-4-yl)cyclopentane-1,3-diamine] |
| < 1000 nM | CN1CCN(C2CCN(c3ccc(Nc4nc(-c5c(F)cccc5F)nc5ccnn45)cc3)CC2)CC1 [Example #46, 2-(2,6-difluorophenyl)-N-(4-(4-(4-methylpiperazin-1-yl)piperidin-1-yl)phenyl)pyrazolo[1,5-a][1,3,5]triazin-4-amine] |
| < 200 nM | CN(C)C1CCC(Nc2nc(-c3c(F)cc(F)cc3F)nc3c(Cl)cnn23)CC1 (stereo not drawn) [Example #131, (1r,4r)-N1-(8-chloro-2-(2,4,6-trifluorophenyl)pyrazolo[1,5-a][1,3,5]triazin-4-yl)-N4,N4-dimethylcyclohexane-1,4-diamine] |
| < 1000 nM | O=C(NC1CCOCC1)c1ccc(Nc2nc(-c3c(F)cccc3Cl)nc3ccnn23)cc1 [Example #25, 4-((2-(2-chloro-6-fluorophenyl)pyrazolo[1,5-a][1,3,5]triazin-4-yl)amino)-N-(tetrahydro-2H-pyran-4-yl)benzamide] |
| < 200 nM | Fc1cccc(F)c1-c1nc(Nc2cnn(C3CCN(C4CC4)CC3)c2)n2ncc(Cl)c2n1 [Example #99, 8-chloro-N-(1-(1-cyclopropylpiperidin-4-yl)-1H-pyrazol-4-yl)-2-(2,6-difluorophenyl)pyrazolo[1,5-a][1,3,5]triazin-4-amine] |
| < 20 nM | Fc1cccc(F)c1-c1nc(Nc2cnn(C3CCNCC3)c2)n2ncc(Cl)c2n1 [Example #103, 8-chloro-2-(2,6-difluorophenyl)-N-(1-(piperidin-4-yl)-1H-pyrazol-4-yl)pyrazolo[1,5-a][1,3,5]triazin-4-amine] |
| < 1000 nM | CCOc1cc(Nc2nc(-c3c(Cl)cccc3Cl)nc3ccnn23)ccc1N1CCN(C)CC1 [Example #12, 2-(2,6-dichlorophenyl)-N-(3-ethoxy-4-(4-methylpiperazin-1-yl)phenyl)pyrazolo[1,5-a][1,3,5]triazin-4-amine] |
| < 200 nM | CN(C)[C@H]1C[C@H](Nc2nc(-c3c(F)cccc3F)nc3c(Cl)cnn23)C1 [Example #130, (1r,3r)-N1-(8-chloro-2-(2,6-difluorophenyl)pyrazolo[1,5-a][1,3,5]triazin-4-yl)-N3,N3-dimethylcyclobutane-1,3-diamine] |
| < 200 nM | N#Cc1cnn2c(N[C@H]3CC[C@H](N4CCOCC4)CC3)nc(-c3c(F)cccc3F)nc12 [Example #93, 2-(2,6-difluorophenyl)-4-(((1r,4r)-4-morpholinocyclohexyl)amino)pyrazolo[1,5-a][1,3,5]triazine-8-carbonitrile] |
| < 200 nM | Fc1cccc(Cl)c1-c1nc(N[C@H]2CC[C@H](N3CCOCC3)CC2)n2nccc2n1 [Example #76, 2-(2-chloro-6-fluorophenyl)-N-((1r,4r)-4-morpholinocyclohexyl)pyrazolo[1,5-a][1,3,5]triazin-4-amine] |
| < 200 nM | CN(C)[C@H]1CC[C@H](Nc2nc(-c3c(F)cccc3F)nc3c(C(F)(F)F)cnn23)CC1 [Example #120, (1r,4r)-N1-(2-(2,6-difluorophenyl)-8-(trifluoromethyl)pyrazolo[1,5-a][1,3,5]triazin-4-yl)-N4,N4-dimethylcyclohexane-1,4-diamine] |
| < 1000 nM | CCOc1cc(Nc2nc(-c3c(F)cccc3Cl)nc3ccnn23)ccc1N1CCN(C)CC1 [Example #32, 2-(2-chloro-6-fluorophenyl)-N-(3-ethoxy-4-(4-methylpiperazin-1-yl)phenyl)pyrazolo[1,5-a][1,3,5]triazin-4-amine] |
| < 1000 nM | O=C(NCC(F)(F)F)c1ccc(Nc2nc(-c3c(F)cccc3F)nc3ccnn23)cc1 [Example #26, 4-((2-(2,6-difluorophenyl)pyrazolo[1,5-a][1,3,5]triazin-4-yl)amino)-N-(2,2,2-trifluoroethyl)benzamide] |
| < 20 nM | Fc1cccc(F)c1-c1nc(NC2CCC(N3CCOCC3)CC2)n2nccc2n1 (stereo not drawn) [Example #70, 2-(2,6-difluorophenyl)-N-((1r,4r)-4-morpholinocyclohexyl)pyrazolo[1,5-a][1,3,5]triazin-4-amine] |
| < 200 nM | CN1CCC(N2CCC(n3cc(Nc4nc(-c5c(F)cccc5F)nc5c(Cl)cnn45)cn3)CC2)CC1 [Example #96, 8-chloro-2-(2,6-difluorophenyl)-N-(1-(1′-methyl-[1,4′-bipiperidin]-4-yl)-1H-pyrazol-4-yl)pyrazolo[1,5-a][1,3,5]triazin-4-amine] |
| < 1000 nM | Fc1cccc(F)c1-c1nc(Nc2ccc(N3CCOCC3)cc2)n2nccc2n1 [Example #37, 2-(2,6-difluorophenyl)-N-(4-morpholinophenyl)pyrazolo[1,5-a][1,3,5]triazin-4-amine] |
| < 20 nM | Fc1cccc(F)c1-c1nc(Nc2cnn(C3CCN(CC4CC4)CC3)c2)n2ncc(Cl)c2n1 [Example #100, 8-chloro-N-(1-(1-(cyclopropylmethyl)piperidin-4-yl)-1H-pyrazol-4-yl)-2-(2,6-difluorophenyl)pyrazolo[1,5-a][1,3,5]triazin-4-amine] |
| < 200 nM | Clc1cccc(Cl)c1-c1nc(Nc2cnn(C3CCN(C4CCOCC4)CC3)c2)n2ncc(Cl)c2n1 [Example #102, 8-chloro-2-(2,6-dichlorophenyl)-N-(1-(1-(tetrahydro-2H-pyran-4-yl)piperidin-4-yl)-1H-pyrazol-4-yl)pyrazolo[1,5-a][1,3,5]triazin-4-amine] |
| < 1000 nM | CCOc1cc(Nc2nc(-c3c(F)cccc3Cl)nc3ccnn23)ccc1C1CCN(C)CC1 [Example #17, 2-(2-chloro-6-fluorophenyl)-N-(3-ethoxy-4-(1-methylpiperidin-4-yl)phenyl)pyrazolo[1,5-a][1,3,5]triazin-4-amine] |
| < 20 nM | Fc1cccc(F)c1-c1nc(N[C@H]2CC[C@H](N3CCOCC3)CC2)n2ncc(Br)c2n1 [Example #95, 8-bromo-2-(2,6-difluorophenyl)-N-((1r,4r)-4-morpholinocyclohexyl)pyrazolo[1,5-a][1,3,5]triazin-4-amine] |
| < 1000 nM | CN1CCN(c2ccc(Nc3nc(-c4c(F)cccc4F)nc4ccnn34)cc2)CC1 [Example #38, 2-(2,6-difluorophenyl)-N-(4-(4-methylpiperazin-1-yl)phenyl)pyrazolo[1,5-a][1,3,5]triazin-4-amine] |
